Measured values from publication PMC9490236, “Accurate de novo design of membrane-traversing macrocycles” (Cell, 2022).
Where a SMILES comes first, the peptide text is derived from it. [ ]: non-standard residue; d: D form. NMeF = CN[C@@H](Cc1ccccc1)C(=O)O; dNMeF = CN[C@H](Cc1ccccc1)C(=O)O; NMeL = CN[C@@H](CC(C)C)C(=O)O; dNMeL = CN[C@H](CC(C)C)C(=O)O; NMeV = CN[C@H](C(=O)O)C(C)C; NMeA = CN[C@@H](C)C(=O)O; Nle = CCCC[C@H](N)C(=O)O; dNMeA = CN[C@H](C)C(=O)O; Sar = CNCC(=O)O

Key:
[1] = PAMPA
in vitro = conditions: PAMPA, PAMPA_Papp_Avg

Row | Compound | PAMPA_R1 [1] | Papp (in vitro) [×10⁻⁶ cm/s] | PAMPA_R3 [1] | PAMPA_Papp_Avg [1]
1 | CC(C)C[C@@H]1NC(=O)[C@@H](CC(C)C)NC(=O)[C@H]2CCCN2C(=O)[C@@H]2CCCN2C(=O)[C@@H](CC(C)C)NC(=O)[C@@H](CC(C)C)N(C)C(=O)[C@@H]2CCCN2C1=O [Design D7.5, LEU PRO *DLEU DLEU PRO DPRO DLEU] (cyclo(LP[dNMeL][dL]P[dP][dL])) | 6.72e-06 cm/s | 6.64 |  | 
2 | CC[C@@H](C)[C@H]1NC(=O)[C@@H](CC(C)C)NC(=O)[C@@H](CC(C)C)NC(=O)[C@H]2CCCN2C(=O)[C@H](CC(C)C)N(C)C(=O)[C@@H](C)N(C)C(=O)[C@@H]2CCCN2C(=O)[C@@H]([C@H](C)CC)NC(=O)[C@@H](C(C)C)NC(=O)[C@@H]2CCCN2C1=O [Design D10.46, PRO DVAL DILE PRO *DALA *LEU DPRO DLEU DLEU DILE] (cyclo([NMeL][dP][dL][dL][dI]P[dV][dI]P[dNMeA])) | 8.07E-07 | 0.684 | 6.41E-07 | 
3 | CC[C@@H](C)[C@H]1NC(=O)[C@@H](Cc2ccccc2)NC(=O)[C@@H]2CCCN2C(=O)[C@@H]([C@H](C)CC)NC(=O)[C@@H](Cc2ccccc2)NC(=O)[C@@H]2CCCN2C1=O [Design D6.1, DILE PRO DPHE DILE PRO DPHE] (cyclo(P[dF][dI]P[dF][dI])) | 3.78e-06 cm/s | 3.34 | 3.92e-06 cm/s | 
4 | CC(C)C[C@H]1C(=O)N[C@@H](C)C(=O)N(C)CC(=O)N2CCC[C@@H]2C(=O)N(C)[C@@H](C(C)C)C(=O)N[C@@H](C(C)C)C(=O)N2CCC[C@H]2C(=O)N2CCC[C@@H]2C(=O)N[C@@H](C)C(=O)N[C@H](C(C)C)C(=O)N1C [Design D10.66, PRO DPRO ALA DVAL *LEU ALA *GLY DPRO *VAL VAL] (cyclo(A[Sar][dP][NMeV]VP[dP]A[dV][NMeL])) | BQL |  | BQL | BQL
5 | CC[C@@H](C)[C@H]1NC(=O)[C@H](CC(C)C)N(C)C(=O)[C@H]2CCCN2C(=O)[C@H](CC(C)C)NC(=O)[C@H](Cc2ccccc2)N(C)C(=O)CN(C)C(=O)[C@@H](C(C)C)NC(=O)[C@H](C)NC(=O)[C@H]2CCCN2C(=O)[C@@H]2CCCN2C1=O (single isomer, unassigned) [Design D10.58.p2, *GLY *PHE LEU DPRO *LEU DILE PRO DPRO ALA DVAL] | 3.15E-07 |  | 2.44E-07 | 3.23E-07
6 | CC[C@H](C)[C@@H]1NC(=O)[C@@H](CC(C)C)NC(=O)[C@H](CC(C)C)NC(=O)[C@H]2CCCN2C(=O)[C@@H]2CCCN2C(=O)[C@H]([C@@H](C)CC)NC(=O)[C@@H](CC(C)C)N(C)C(=O)[C@@H](CC(C)C)N(C)C1=O [Design D8.9, ILE *DLEU *DLEU ILE PRO DPRO LEU DLEU] (cyclo(IP[dP]L[dL]I[dNMeL][dNMeL])) | BQL |  | BQL | BQL
7 | CC(C)C[C@@H]1NC(=O)[C@H](C(C)C)NC(=O)[C@@H](C)NC(=O)[C@H](C)NC(=O)[C@@H]2CCCN2C(=O)[C@H]2CCCN2C(=O)[C@@H](C)NC(=O)[C@H]2CCCN2C(=O)[C@@H]2CCCN2C1=O [Design D9.34, PRO ALA DALA VAL LEU PRO DPRO DALA DPRO] (cyclo(A[dA]VLP[dP][dA][dP]P)) | BQL |  | BQL | BQL
8 | CC[C@H](C)[C@@H]1NC(=O)[C@H](C(C)C)NC(=O)[C@@H](CC(C)C)N(C)C(=O)[C@H](Cc2ccccc2)N(C)C(=O)[C@H]2CCCN2C(=O)[C@H](C(C)C)NC(=O)[C@@H](C)NC(=O)[C@H](CC(C)C)N(C)C(=O)[C@H]2CCCN2C(=O)[C@@H](Cc2ccccc2)NC1=O [Design D10.9, DPRO *LEU DALA VAL DPRO *PHE *DLEU VAL ILE DPHE] (cyclo(I[dF][dP][NMeL][dA]V[dP][NMeF][dNMeL]V)) | BQL |  | BQL | BQL
9 | CC[C@@H](C)[C@H]1NC(=O)[C@H](CC(C)C)N(C)C(=O)[C@H]2CCCN2C(=O)[C@H](CC(C)C)NC(=O)[C@@H](Cc2ccccc2)N(C)C(=O)[C@H](CC(C)C)N(C)C(=O)[C@@H](C(C)C)NC(=O)[C@H](C)NC(=O)[C@H]2CCCN2C(=O)[C@@H]2CCCN2C1=O (single isomer, unassigned) [Design D10.60.p2, *LEU *DPHE LEU DPRO *LEU DILE PRO DPRO ALA DVAL] | 1.49E-06 |  | 1.62E-06 | 1.17E-06
10 | CCCC[C@@H]1NC(=O)[C@H](C(C)C)NC(=O)[C@H]2CCCN2C(=O)[C@@H]2CCCN2C(=O)[C@H](C)NC(=O)[C@@H](C)N(C)C(=O)[C@@H](CC(C)C)N(C)C(=O)[C@@H](C(C)C)NC(=O)[C@@H]2CCCN2C1=O [Design D9.21, ALA PRO DPRO VAL MET PRO DVAL *DLEU *DALA] (cyclo(AP[dP]V[Nle]P[dV][dNMeL][dNMeA])) | 2.78E-07 |  | 3.05E-07 | 2.94E-07
11 | CCCC[C@@H]1NC(=O)[C@@H](C)N(C)C(=O)[C@@H]2CCCN2C(=O)[C@@H](CC(C)C)NC(=O)[C@H](CC(C)C)N(C)C(=O)[C@H]2CCCN2C(=O)[C@H](CC(C)C)NC(=O)[C@@H](CC(C)C)NC(=O)[C@@H](C)NC1=O [Design D9.28, DLEU LEU DPRO *LEU DLEU PRO *DALA MET DALA] (cyclo(L[dP][NMeL][dL]P[dNMeA][Nle][dA][dL])) | 1.84E-06 |  | 1.41E-06 | 1.60E-06
12 | CCCC[C@@H]1NC(=O)[C@H]2CCCN2C(=O)[C@@H]2CCCN2C(=O)[C@@H](C)NC(=O)[C@H]2CCCN2C(=O)[C@@H](C(C)C)NC(=O)[C@H](C(C)C)NC(=O)[C@@H](Cc2ccccc2)N(C)C(=O)[C@H](C)N(C)C1=O [Design D9.31, PRO DPRO MET *ALA *DPHE VAL DVAL DPRO DALA] (cyclo([NMeA][dNMeF]V[dV][dP][dA]P[dP][Nle])) | 6.96E-08 |  | 5.29E-08 | 6.86E-08
13 | CC[C@@H](C)[C@H]1NC(=O)[C@@H](CC(C)C)N(C)C(=O)[C@@H](CC(C)C)N(C)C(=O)[C@H](CC(C)C)NC(=O)[C@@H](CC(C)C)N(C)C(=O)[C@H](Cc2ccccc2)NC(=O)[C@H](CC(C)C)NC(=O)[C@@H]2CCCN2C(=O)[C@H]2CCCN2C(=O)[C@@H]2CCCN2C(=O)[C@H](CC(C)C)NC1=O [Design D11.22, PHE *DLEU LEU *DLEU *DLEU DILE LEU PRO DPRO PRO LEU] (cyclo(LF[dNMeL]L[dNMeL][dNMeL][dI]LP[dP]P)) | BQL |  | BQL | BQL
14 | CC(C)C[C@@H]1C(=O)N[C@H](CC(C)C)C(=O)N(C)[C@H](Cc2ccccc2)C(=O)N(C)[C@@H](CC(C)C)C(=O)N(C)[C@H](C)C(=O)N2CCC[C@H]2C(=O)N(C)[C@H](Cc2ccccc2)C(=O)N[C@@H](C(C)C)C(=O)N[C@H](CC(C)C)C(=O)N2CCC[C@H]2C(=O)N1C [Design D10.14, *DPHE VAL DLEU PRO *DLEU DLEU *DPHE *LEU *DALA PRO] (cyclo([NMeL][dNMeA]P[dNMeF]V[dL]P[dNMeL][dL][dNMeF])) | BQL |  | BQL | BQL
15 | CC(C)C[C@@H]1NC(=O)[C@@H](C(C)C)NC(=O)[C@H](CC(C)C)N(C)C(=O)[C@H]2CCCN2C(=O)[C@@H](C(C)C)NC(=O)[C@H]2CCCN2C(=O)[C@@H](C(C)C)NC(=O)[C@@H](Cc2ccccc2)N(C)C(=O)[C@H](CC(C)C)N(C)C1=O (single isomer, unassigned) [Design D9.8.p1, *LEU DVAL LEU *LEU *DPHE DVAL DPRO DVAL DPRO] | 5.56E-06 |  | 6.18E-06 | 5.72E-06
16 | CC(C)C[C@H]1NC(=O)[C@@H]2CCCN2C(=O)[C@H]2CCCN2C(=O)[C@H](C(C)C)NC(=O)[C@@H](CC(C)C)NC(=O)[C@@H]2CCCN2C(=O)[C@H]2CCCN2C(=O)[C@H](C(C)C)NC1=O (single isomer, unassigned) [Design D8.12.p2, DLEU VAL DPRO PRO DLEU VAL DPRO PRO] | 1.77E-07 |  | 2.25E-07 | 2.00E-07
17 | CC(C)C[C@@H]1C(=O)N[C@H](C(C)C)C(=O)N[C@@H](C)C(=O)N2CCC[C@H]2C(=O)N2CCC[C@H]2C(=O)N[C@@H](C)C(=O)N2CCC[C@@H]2C(=O)N[C@@H](Cc2ccccc2)C(=O)N2CCC[C@H]2C(=O)N[C@@H](C(C)C)C(=O)N1C [Design D10.53, ALA DPRO PHE PRO VAL *DLEU DVAL ALA PRO PRO] (cyclo(APPA[dP]FPV[dNMeL][dV])) | BQL |  | BQL | BQL
18 | CC[C@H](C)[C@@H]1NC(=O)[C@@H](C)N(C)C(=O)[C@@H](C)N(C)C(=O)[C@H](C(C)C)NC(=O)[C@H]2CCCN2C(=O)[C@@H]2CCCN2C(=O)[C@H](C(C)C)NC(=O)[C@H]2CCCN2C(=O)[C@@H]2CCCN2C1=O [Design D9.12, PRO DPRO VAL PRO DPRO VAL *DALA *DALA ILE] (cyclo(IP[dP]VP[dP]V[dNMeA][dNMeA])) | BQL |  | BQL | BQL
19 | CC(C)C[C@@H]1C(=O)N(C)[C@@H](Cc2ccccc2)C(=O)N[C@@H](C(C)C)C(=O)N2CCC[C@H]2C(=O)NCC(=O)N2CCC[C@H]2C(=O)N(C)[C@H](CC(C)C)C(=O)N[C@@H](C(C)C)C(=O)N[C@H](CC(C)C)C(=O)N1C (single isomer, unassigned) [Design D9.43.p2, *DLEU VAL DLEU *DLEU *PHE VAL PRO GLY PRO] | 3.34E-06 |  | 3.77E-06 | 3.30E-06
20 | *DPHE *LEU PRO DLEU VAL *DLEU PRO DILE *ALA *ALA [Design D10.65] | BQL |  | BQL | BQL
21 | CC[C@H](C)[C@@H]1NC(=O)[C@H](CC(C)C)NC(=O)[C@H](Cc2ccccc2)NC(=O)[C@@H](C)NC(=O)[C@H]2CCCN2C(=O)[C@@H]2CCCN2C(=O)[C@H]2CCCN2C(=O)[C@H](CC(C)C)NC(=O)[C@@H](C(C)C)NC(=O)[C@@H](CC(C)C)N(C)C(=O)[C@@H]2CCCN2C1=O [Design D11.17, PRO *DLEU DVAL LEU DPRO PRO DPRO DALA PHE LEU ILE] (cyclo([dP][dA]FLIP[dNMeL][dV]L[dP]P)) | BQL |  | BQL | BQL
